The values that follow are results of earlier work, collected in patent US7135615B2, “Chromosome doubling method” (The Curators of the University of Missouri, priority 2001, dated 2006).

Molecules are shown by their SMILES.

The data set has as its system parthenogenetically induced haploid maize (Zea mays L.) seedlings. The following applies: cited from earlier work.

Consider `COc1cc2c(c(OC)c1OC)-c1ccc(OC)c(=O)cc1[C@@H](NC(C)=O)CC2` [colchicine], for which, under “colchicine treatments of haploid maize seedlings, reported”, the haploid recovery rates was 26–41%. In addition, the “recovery rates could drop as low as” value (colchicine treatments, affected by growing conditions) is 0.8–3.1%. For the same compound, the estimated selfing rate (previously used colchicine treatments) is on record as 5–15%.
